Data published in PubChem BioAssay AID256 (DTP/NCI, 2004).
Several values for one entry are separate records, joined by “and”; a condition that tells them apart may be missing. Identical values can stand only once. Inconclusive results and toxic doses are left out.

Tested on: CD2F1 mice, L1210 leukemia ip, survival T/C
Assay: NCI In Vivo Anticancer Drug Screen. Data for tumor model L1210 Leukemia (intraperitoneal) in CD2F1 (CDF1) mice
Settings: higher = longer survival
Method in brief: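 Each value reflects a quotient of treated over vehicle control outcomes in mice with a transplanted tumor.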

[1] = endpoint: mean survival time, dose: 75.0 mg/kg/injection, schedule: Q01DX001 (ip), vehicle: saline
[2] = endpoint: mean survival time, dose: 100.0 mg/kg/injection, schedule: Q01DX001 (ip), vehicle: saline
[3] = endpoint: mean survival time, dose: 200.0 mg/kg/injection, schedule: Q01DX001 (ip), vehicle: saline
[4] = endpoint: mean survival time, dose: 400.0 mg/kg/injection, schedule: Q01DX001 (ip), vehicle: saline
[5] = endpoint: mean survival time, dose: 200.0 mg/kg/injection, schedule: Q01DX009 (ip), vehicle: saline with Tween-80
[6] = endpoint: mean survival time, dose: 400.0 mg/kg/injection, schedule: Q01DX009 (ip), vehicle: saline with Tween-80
[7] = endpoint: mean survival time, dose: 100.0 mg/kg/injection, schedule: Q01DX009 (ip), vehicle: saline with Tween-80

With `CN1C2CCC1CC(OC(=O)/C=C/C(=O)OC1CC3CCC(C1)N3C)C2` (stereo not drawn) the T/C [1] was 94 % of control, the T/C (endpoint: mean survival time, dose: 150.0 mg/kg/injection, schedule: Q01DX001 (ip), vehicle: saline) was 106 % of control and the T/C (endpoint: mean survival time, dose: 300.0 mg/kg/injection, schedule: Q01DX001 (ip), vehicle: saline) was 94 % of control.

With `COc1ccc2c(c1)OC(OC)(c1ccc(OC)c(OC)c1)C(O)(OC)C2=O` (stereo not drawn) the T/C (endpoint: mean survival time, dose: 50.0 mg/kg/injection, schedule: Q01DX001 (ip), vehicle: saline) was 102 % of control, the T/C [2] was 98 % of control and the T/C [3] was 98 % of control. For the same compound, the T/C [4] was 96 % of control.

With `C[Si](C)(CN)CN.O=C([O-])C1(C(=O)[O-])CCC1.[Pt+4]` the T/C (endpoint: median survival time, dose: 2.5 mg/kg/injection, schedule: Q04DX003 (ip), vehicle: water) was 110 % of control, the T/C (endpoint: median survival time, dose: 5.0 mg/kg/injection, schedule: Q04DX003 (ip), vehicle: water) was 107 % of control and the T/C (endpoint: median survival time, dose: 10.0 mg/kg/injection, schedule: Q04DX003 (ip), vehicle: water) was 122 % of control. The T/C (endpoint: median survival time, dose: 20.0 mg/kg/injection, schedule: Q04DX003 (ip), vehicle: water) was 151 % of control, the T/C (endpoint: median survival time, dose: 25.0 mg/kg/injection, schedule: Q04DX003 (ip), vehicle: water) was 151 % of control and the T/C (endpoint: median survival time, dose: 40.0 mg/kg/injection, schedule: Q04DX003 (ip), vehicle: water) was 164 % of control and 177 % of control. For the same compound, the T/C (endpoint: median survival time, dose: 50.0 mg/kg/injection, schedule: Q04DX003 (ip), vehicle: water) was 175 % of control, the T/C (endpoint: median survival time, dose: 60.0 mg/kg/injection, schedule: Q04DX003 (ip), vehicle: water) was 181 % of control and the T/C (endpoint: median survival time, dose: 80.0 mg/kg/injection, schedule: Q04DX003 (ip), vehicle: water) was 244 % of control. The T/C (endpoint: median survival time, dose: 100.0 mg/kg/injection, schedule: Q04DX003 (ip), vehicle: water) was 175 % of control.

With `CCCc1ccc(C(C)=O)cc1` the T/C (endpoint: mean survival time, dose: 75.0 mg/kg/injection, schedule: Q04DX002 (ip), vehicle: saline with Tween-80) was 112 % of control and the T/C (endpoint: mean survival time, dose: 150.0 mg/kg/injection, schedule: Q04DX002 (ip), vehicle: saline with Tween-80) was 100 % of control.

With `Cc1cc(C)[nH]n1` the T/C (endpoint: mean survival time, dose: 100.0 mg/kg/injection, schedule: Q04DX003 (ip), vehicle: saline with Tween-80) was 95 % of control, the T/C (endpoint: mean survival time, dose: 200.0 mg/kg/injection, schedule: Q04DX003 (ip), vehicle: saline with Tween-80) was 93 % of control and the T/C (endpoint: mean survival time, dose: 400.0 mg/kg/injection, schedule: Q04DX003 (ip), vehicle: saline with Tween-80) was 97 % of control.

`CC(C)(C)CC(C)(C)c1ccc(OCCOc2ccc(C(=O)NCCNC(=O)c3ccc4ccccc4c3O)cc2N)cc1` was tested, and the T/C [5] was 89 % of control and the T/C [6] was 89 % of control.

`O[Si](O)([O][Sn]([c]1ccccc1)([c]1ccccc1)[c]1ccccc1)[O][Sn]([c]1ccccc1)([c]1ccccc1)[c]1ccccc1` was tested, and the T/C (endpoint: mean survival time, dose: 0.39 mg/kg/injection, schedule: Q01DX009 (ip), vehicle: saline) was 94 % of control, the T/C (endpoint: mean survival time, dose: 0.78 mg/kg/injection, schedule: Q01DX009 (ip), vehicle: saline) was 94 % of control and the T/C (endpoint: mean survival time, dose: 1.56 mg/kg/injection, schedule: Q01DX009 (ip), vehicle: saline) was 105 % of control. For the same compound, the T/C (endpoint: mean survival time, dose: 6.25 mg/kg/injection, schedule: Q01DX009 (ip), vehicle: saline) was 106 % of control and the T/C (endpoint: mean survival time, dose: 12.5 mg/kg/injection, schedule: Q01DX009 (ip), vehicle: saline) was 100 % of control.

For `CC1C=COCCO1` (stereo not drawn) (tested in a mixture with another compound), the T/C (endpoint: mean survival time, dose: 100.0 mg/kg/injection, schedule: Q04DX003 (ip), vehicle: acetone) was 97 % of control, the T/C (endpoint: mean survival time, dose: 200.0 mg/kg/injection, schedule: Q04DX003 (ip), vehicle: acetone) was 98 % of control and the T/C (endpoint: mean survival time, dose: 400.0 mg/kg/injection, schedule: Q04DX003 (ip), vehicle: acetone) was 98 % of control.

For `CS/C(N)=N\S(=O)(=O)c1ccc(NC(C)=O)cc1`, the T/C [7] was 98 % of control, the T/C [5] was 95 % of control and the T/C [6] was 106 % of control.

In the case of `C=CCCCCCCCCC(=O)NCCN1CCOCC1`, the T/C (endpoint: mean survival time, dose: 50.0 mg/kg/injection, schedule: Q01DX009 (ip), vehicle: saline with Tween-80) is reported as 100 % of control, the T/C [7] is reported as 96 % of control and the T/C [5] is reported as 88 % of control.

With `COC(=O)c1[se]c(C(=O)OC)c(-c2ccccc2)c1-c1ccccc1` the T/C [2] was 100 % of control, the T/C [3] was 103 % of control and the T/C [4] was 103 % of control.

With `Cc1c2ccccc2c(C)c2c1cc(C(=O)O)c1ccccc12` the T/C (endpoint: mean survival time, dose: 12.5 mg/kg/injection, schedule: Q04DX002 (ip), vehicle: Klucel (hydroxypropylcellulose) (HPC)) was 106 % of control, the T/C (endpoint: mean survival time, dose: 25.0 mg/kg/injection, schedule: Q04DX002 (ip), vehicle: Klucel (hydroxypropylcellulose) (HPC)) was 101 % of control and the T/C (endpoint: mean survival time, dose: 50.0 mg/kg/injection, schedule: Q04DX002 (ip), vehicle: Klucel (hydroxypropylcellulose) (HPC)) was 106 % of control. The T/C (endpoint: mean survival time, dose: 100.0 mg/kg/injection, schedule: Q04DX002 (ip), vehicle: Klucel (hydroxypropylcellulose) (HPC)) was 107 % of control, the T/C (endpoint: mean survival time, dose: 150.0 mg/kg/injection, schedule: Q04DX002 (ip), vehicle: Klucel (hydroxypropylcellulose) (HPC)) was 112 % of control and the T/C (endpoint: median survival time, dose: 25.0 mg/kg/injection, schedule: Q01DX009 (ip), vehicle: sodium bicarbonate) was 111 % of control. For the same compound, the T/C (endpoint: median survival time, dose: 50.0 mg/kg/injection, schedule: Q01DX009 (ip), vehicle: sodium bicarbonate) was 115 % of control and 117 % of control, the T/C (endpoint: median survival time, dose: 200.0 mg/kg/injection, schedule: Q01DX009 (ip), vehicle: sodium bicarbonate) was 122 % of control and the T/C (endpoint: median survival time, dose: 400.0 mg/kg/injection, schedule: Q01DX009 (ip), vehicle: sodium bicarbonate) was 107 % of control.

For `O=C1C(Cl)=C(Cl)C(=O)c2ccccc21`, the T/C (endpoint: mean survival time, dose: 5.0 mg/kg/injection, schedule: Q04DX003 (ip), vehicle: saline with Tween-80) was 98 % of control, the T/C (endpoint: mean survival time, dose: 10.0 mg/kg/injection, schedule: Q04DX003 (ip), vehicle: saline with Tween-80) was 93 % of control and the T/C (endpoint: mean survival time, dose: 20.0 mg/kg/injection, schedule: Q04DX003 (ip), vehicle: saline with Tween-80) was 101 % of control.

For `C(CC1CCNCC1)CC1CCNCC1`, the T/C (endpoint: mean survival time, dose: 25.0 mg/kg/injection, schedule: Q04DX003 (ip), vehicle: saline with Tween-80) was 95 % of control and the T/C (endpoint: mean survival time, dose: 50.0 mg/kg/injection, schedule: Q04DX003 (ip), vehicle: saline with Tween-80) was 87 % of control.

With `S=c1nc[nH]c2nc[nH]c12.[W]` the T/C (endpoint: median survival time, dose: 60.0 mg/kg/injection, schedule: Q01DX009 (ip), vehicle: water) was 151 % of control (2×) and 169 % of control, the T/C (endpoint: median survival time, dose: 60.0 mg/kg/injection, schedule: Q## X009 (ip), vehicle: water) was 169 % of control and the T/C (endpoint: median survival time, dose: 80.0 mg/kg/injection, schedule: Q01DX009 (ip), vehicle: water) was 164 % of control and 167 % of control (2×). The T/C (endpoint: median survival time, dose: 80.0 mg/kg/injection, schedule: Q## X009 (ip), vehicle: water) was 164 % of control, the T/C (endpoint: median survival time, dose: 100.0 mg/kg/injection, schedule: Q01DX009 (ip), vehicle: water) was 154 % of control and the T/C (endpoint: median survival time, dose: 100.0 mg/kg/injection, schedule: Q01DX009 (other), vehicle: water) was 154 % of control. For the same compound, the T/C (endpoint: median survival time, dose: 120.0 mg/kg/injection, schedule: Q01DX009 (ip), vehicle: water) was 158 % of control (2×) and 164 % of control, the T/C (endpoint: median survival time, dose: 120.0 mg/kg/injection, schedule: Q01DX009 (other), vehicle: water) was 164 % of control and the T/C (endpoint: median survival time, dose: 140.0 mg/kg/injection, schedule: Q01DX009 (ip), vehicle: water) was 163 % of control. For the same compound, the T/C (endpoint: median survival time, dose: 140.0 mg/kg/injection, schedule: Q## X009 (ip), vehicle: water) was 163 % of control, the T/C (endpoint: median survival time, dose: 160.0 mg/kg/injection, schedule: Q01DX009 (ip), vehicle: water) was 164 % of control and the T/C (endpoint: median survival time, dose: 160.0 mg/kg/injection, schedule: Q01DX009 (other), vehicle: water) was 164 % of control.

For `CCCC1=C(CCC)C(F)(F)C1(F)F`, the T/C (endpoint: mean survival time, dose: 75.0 mg/kg/injection, schedule: Q01DX001 (ip), vehicle: other) was 98 % of control, the T/C (endpoint: mean survival time, dose: 150.0 mg/kg/injection, schedule: Q01DX001 (ip), vehicle: other) was 96 % of control and the T/C (endpoint: mean survival time, dose: 300.0 mg/kg/injection, schedule: Q01DX001 (ip), vehicle: other) was 108 % of control.

For `CNC(=O)Oc1ccc(N)cc1`, the T/C [1] was 102 % of control.

`CNC(=O)Cc1ccc2cc(OC)c(OC)cc2c1` was tested, and the T/C [7] was 100 % of control and the T/C [5] was 102 % of control.
